Reference: patent publication US8058306B2, “Phenyl pyrrole aminoguanidine derivatives” (Action Pharma A/S, priority 2006, dated 2011)

Molecular target: T1, human MC4 receptor (Homo sapiens, UniProt P32245)
T1 construct: expressed in transfected cells; host or cells: CHO cells
Assay: [125I]-NDP-MSH radio-ligand binding, MC4 (h) receptor (recombinant CHO cells)
Conditions: 120 min/37° C.
Method: Determination of binding affinities for MC receptors was performed by [^125I]-[Nle4,D-Phe7]α-MSH ([^125I]-NDP-MSH) radio-ligand binding. In short, murine B16-F1 melanoma cells expressing MC1, but not other MC receptors, were used for binding affinity studies against the murine MC1 receptor (Siegrist et al.; 1988, J. Recept. Res., 8(1-4):323-43). For human MC3, MC4 and MC5 receptor affinities human recombinant CHO cells were used (Schioth et al. 1997, Neuropeptides 31:565-71, 1997). Cells were suspended in HEPES buffer and by use of microwell plates radio-ligands, as well as test compound, in the concentration range of 10^−10 to 10^−6 were added. After incubation at 37° C. (22° C. for the MC1 receptor assay) separation of bound and free [^125I]-NDP-MSH was done by multiple washings with buffer.
The results were expressed as a percent of control specific binding obtained in the presence of the test compounds. The IC50 values (concentration causing a half-maximal inhibition of control specific binding) and Hill coefficients (nH) were determined by non-linear regression analysis of the competition curves using Hill equation curve fitting. The inhibition constants (Ki) were calculated from the Cheng Prusoff equation (Ki=IC50/(1+(L/KD)), where L=concentration of radio-ligand in the assay, and KD=affinity of the radio-ligand for the receptor).

T1 sequence (P32245 whole entry): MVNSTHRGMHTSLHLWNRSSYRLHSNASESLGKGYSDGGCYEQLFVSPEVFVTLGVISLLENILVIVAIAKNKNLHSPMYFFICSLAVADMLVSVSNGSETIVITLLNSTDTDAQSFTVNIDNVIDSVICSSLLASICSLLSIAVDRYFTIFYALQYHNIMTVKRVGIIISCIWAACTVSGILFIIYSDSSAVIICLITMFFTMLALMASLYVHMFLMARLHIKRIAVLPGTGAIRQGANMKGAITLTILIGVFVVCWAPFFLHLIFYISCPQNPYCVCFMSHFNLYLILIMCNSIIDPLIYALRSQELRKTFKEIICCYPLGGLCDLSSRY

| Ki | SMILES |
| --- | --- |
| > 1000 nM | N=C(N)NN=CC=Cc1cccn1-c1ccccc1[N+](=O)[O-] [Compound 2, [1-(2-nitrophenyl)-1H-pyrrol-2-yl-allylideneamino]guanidinium acetate] |
| 300 nM | N=C(N)NN=CC=Cc1cccn1-c1ccccc1Br [Compound 3, [1-(2-bromophenyl)-1H-pyrrol-2-yl-allylideneamino]guanidinium acetate] |
| 620 nM | N=C(N)NN=CC=Cc1cccn1-c1ccc(Cl)cc1 [Compound 1, [1-(4-chlorophenyl)-1H-pyrrol-2-yl-allylideneamino]guanidinium acetate] |
